Measurements published in patent publication US4833146A, “Tertiary hydroxyalkylxanthines, medicaments containing them and their use” (priority 1985, dated 1989).
Where two headings read alike, the source gives them in different places.

Tests used:
[1] = animals and humans, cited from earlier work; for "liver first-pass" effect: especially on oral administration; for biotransformation: enzymatic oxidation of the oxo- or hydroxyhexyl side chain
ischemic skeletal muscle [2] = experiment: Action on disturbed peripheral arterial circulation: pO2 in ischemic skeletal muscle, occlusion model on dogs; assay type: in vivo, male beagle dogs; design: key: W = % frequency of positive experiments × mean % pO2 increase; conditions: dog occlusion model
Procedure: The experimental animals used were male beagle dogs under sodium pentobarbital anesthesia (35 mg/kg intraperitoneally), on whose right hind extremity the femoral artery and a certain area of the lower leg muscle was exposed and on whose left hind extremity the femoral vein was exposed and a cannula inserted for infusion of the product and the femoral artery was exposed and a cannula inserted for blood pressure measurements. The animals were relaxed by administration of alcuronium chloride (0.1 mg/kg intravenously and then 0.05 mg/kg intraperitoneally every 30 minutes) and artificially ventilated in order on the one hand to avoid spontaneous contractions of the muscle with an adverse effect on the pO2 measurements and on the other hand to guarantee a uniform supply of respiratory oxygen. Another catheter inserted into the femoral vein of the right hind extremity was used to monitor the lactate concentration in the venous outflow. […]
In each experiment, the maximum percentage rise in the pO2 following administration of the substance during vascular occlusion was used as the measurement parameter for the action of the product (n=2-11). A dimensionless activity index W was calculated from three measurement values for each compound by obtaining the product of the percentage frequency of positive experiments and the average percentage increase in pO2 resulting from the positive individual values, this index both taking into account interindividual differences in the topology of the vascularization of the muscle and also recording responders and nonresponders to the test compounds and accordingly permitting a more reliable activity comparison amongst the individual products.

[3] = tested on: regional cerebral circulation; experiment: Action on regional cerebral circulation of anesthetized cats (heat conducting technique); assay type: in vivo, cats of both sexes; conditions: Felis catus, iv, 3 mg/kg i.v., read-out: Average increase in cerebral circulation as Δλ in %
Procedure: The percentage increase in the heat transport number λ after administration of the product is thus a measure of the improvement in circulation.
The compounds were administered intravenously in aqueous solution. The dose was 3 mg of test substance per kg of body weight. 3 to 5 individual experiments were carried out for each test product, and the average percentage increase in cerebral circulation was determined from the measurement data obtained.

NMRI mice = experiment: in vivo; conditions: single dose, 7 days, Table 3
Procedure: (§1) The LD50 ranges were determined by the standard method via the mortality which arose within 7 days in NMRI mice following a single intravenous (i.v.) or intraperitoneal (i.p.) dose (NMRI=Naval Medical Research Institute).

in vivo = conditions: mouse, in vivo, single dose, 7 days, read-out: Toxicity LD50 (mouse)
Procedure: as §1

[4] = tested on: isolated perfused rabbit ear; experiment: Inhibiting effect on vascular contraction induced with norfenefrine on the isolated perfused rabbit ear
Excerpt: It is today generally recognized that exclusively vasodilating drugs or agents with a very potent vasodilating action component are unsuitable for the treatment of disturbances in the microcirculation because, on the one hand, the physiological vasodilatory reserve as a rule is already completely exhausted, and on the other hand there is the risk of a steal phenomenon, which means a harmful redistribution of the nutritive blood flow in the microcirculation at the expense of the already undersupplied diseased tissue. The inhibiting effect on vascular contraction induced with norfenefrine on the isolated perfused rabbit ear was therefore investigated.

[5] = tested on: ischemic skeletal muscle (tibialis anterior and extensor digitorum longus); experiment: Chronic experiment on rats with unilateral occlusion of the iliac artery: metabolism in ischemic skeletal muscle (histochemical staining); assay type: in vivo
ischemic skeletal muscle [6] = experiment: Chronic experiment: contractility of the ischemic skeletal muscle in rats with a ligated right femoral artery; assay type: in vivo; conditions: 25 mg/kg daily oral, 20 days
Procedure: The superiority of the xanthines of the formula I was also to be seen from another chronic experiment in which the influence on the contractility of the ischemic skeletal muscle in rats with a ligated right femoral artery was investigated. The animals received the particular test product in a daily oral dose of 25 mg/kg by a stomach tube for 20 days. Thereafter, the fatigability of the ischemic muscle on electrical stimulation with about 80 contractions per minute was determined via the decrease in contractile force after stimulation for 1, 15 and 45 minutes in comparison with untreated control animals. […] This improvement was accompanied by an increase in the mitochondrial respiratory control rate (RCR). […] The compounds according to the invention are accordingly also suitable for the treatment of muscular energy metabolism disorders of various causes, particularly mitochondrial myopathy.

SMILES | Activity index W (ischemic skeletal muscle [2]; i.d. 25 mg/kg) | Activity index W (ischemic skeletal muscle [2]; i.v. 0.6 mg/kg/min) | change in vivo at 3 mg/kg [3] | further results
CC(O)CCCCn1c(=O)c2c(ncn2C)n(C)c1=O (stereo not shown) [1-(5-hydroxyhexyl)-3,7-dimethylxanthine] |  |  |  | "liver first-pass" effect [1]: pronounced; biotransformation [1]: rapid and complete
CCCn1c(=O)c2c(ncn2CCCCC(C)(C)O)n(C)c1=O [Example 3, 7-(5-Hydroxy-5-methylhexyl)-3-methyl-1-propylxanthine] | 1250 | 1650 | 15.5% | Toxicity LD50 (mouse) (NMRI mice; i.v.): 100 to 200 mg/kg; LD50 at 168 h (in vivo; iv, Table 2): 100 to 200 mg/kg
Cn1c(=O)c2c(ncn2CCCCC(C)(C)O)n(C)c1=O [Example 4, 7-(5-Hydroxy-5-methylhexyl)-1,3-dimethylxanthine] |  | 1300 |  | LD50 at 168 h (in vivo; iv, Table 2): 100 to 200 mg/kg
CCOCn1cnc2c1c(=O)n(CCCCC(C)(C)O)c(=O)n2C [Example 5, 7-Ethoxymethyl-1-(5-hydroxy-5-methylhexyl)-3-methylxanthine] | 2909 |  |  | inhibition of the norfenefrine action ([4]; up to a concentration of 100 μg/ml): no inhibition; proportion of oxidative fibers in the two muscles of the ischemic extremity ([5]; 3 mg/kg intraperitoneally three times daily, 5 weeks): increased significantly; Activity index W (ischemic skeletal muscle [2]; i.v. 0.3 mg/kg/min): 2080; mitochondrial respiratory control rate (RCR) (ischemic skeletal muscle [6]): increase; contractility values reached in the ischemic muscle (ischemic skeletal muscle [6]; compared with healthy muscle of untreated animals): normal contractility values like those in the left healthy (non-ischemic) muscle of untreated animals being reached; muscular performance in the ischemic extremity (ischemic skeletal muscle [6]; electrical stimulation for 1, 15 and 45 minutes): significant improvement; LD50 at 168 h (in vivo; ip, Table 2): 300 to 600 mg/kg; LD50 at 168 h (in vivo; iv, Table 2): 150 to 300 mg/kg
Cn1c(=O)n(CCCCC(C)(C)O)c(=O)c2[nH]cnc21 [Example 6, 1-(5-Hydroxy-5-methylhexyl)-3-methylxanthine] | 700 |  |  | 
CC(O)Cn1cnc2c1c(=O)n(CCCCC(C)(C)O)c(=O)n2C (stereo not shown) [Example 8, 1-(5-Hydroxy-5-methylhexyl)-7-(2-hydroxypropyl)-3-methylxanthine] |  | 1400 |  | 
CCCn1cnc2c1c(=O)n(CCCCC(C)(C)O)c(=O)n2C [Example 9, 1-(5-Hydroxy-5-methylhexyl)-3-methyl-7-propylxanthine] |  |  | 9.4% | LD50 at 168 h (in vivo; iv, Table 3): 100 to 200 mg/kg
CCC(C)(O)CCCCn1c(=O)c2c(ncn2C)n(C)c1=O (stereo not shown) [Example 10, 1-(5-Hydroxy-5-methylheptyl)-3,7-dimethylxantine] | 1965 |  |  | 
CCCn1cnc2c1c(=O)n(CCCC(C)(C)O)c(=O)n2C [Example 12, 1-(4-Hydroxy-4-methylpentyl)-3-methyl-7-propylxanthine] | 2337 | 866 |  | 
Cn1cnc2c1c(=O)n(CCCCC(C)(C)O)c(=O)n2C [Example 14, 1-(5-Hydroxy-5-methylhexyl)-3,7-dimethylxanthine] |  | 960 |  | 
CCCn1cnc2c1c(=O)n(CCCCCC(C)(C)O)c(=O)n2C [Example 16] |  | 999 | 25.8% | Toxicity LD50 (mouse) (NMRI mice; i.p.): 150 to 300 mg/kg; LD50 at 168 h (in vivo; ip, Table 2): 150 to 300 mg/kg
CCn1c(=O)n(CCCCC(C)(C)O)c(=O)c2c1ncn2C [Example 17] |  | 1525 | 9.4% | LD50 at 168 h (in vivo; iv, Table 3): > 200 mg/kg
CCCn1cnc2c1c(=O)n(CCCCC(C)(C)O)c(=O)n2CC [Example 18] |  | 1578 | 9.4% | Toxicity LD50 (mouse) (NMRI mice; i.v.): 100 to 200 mg/kg; LD50 at 168 h (in vivo; iv, Table 2): 100 to 200 mg/kg
CCCn1cnc2c1c(=O)n(CCCC(C)(C)O)c(=O)n2CC [Example 22] |  |  | 12% | LD50 at 168 h (in vivo; iv, Table 3): > 200 mg/kg
COCn1cnc2c1c(=O)n(CCCCCC(C)(C)O)c(=O)n2C [Example 27] |  |  | 10.3% | LD50 at 168 h (in vivo; iv, Table 3): > 200 mg/kg
COCn1cnc2c1c(=O)n(CCCCC(C)(C)O)c(=O)n2C [Example 28] | 2100 |  |  | 
COCn1cnc2c1c(=O)n(CCC(C)(C)O)c(=O)n2C [Example 32] | 566 | 2650 |  | 
CCn1c(=O)n(CCCCC(C)(C)O)c(=O)c2c1ncn2CCOC [Example 37] | 950 | 1400 |  | 
CCOCCn1cnc2c1c(=O)n(CCCCC(C)(C)O)c(=O)n2C [Example 39] | 1996 | 1567 |  | 
CCn1c(=O)n(CCCCC(C)(C)O)c(=O)c2c1ncn2CCCOC [Example 43] |  |  | 19.8% | LD50 at 168 h (in vivo; iv, Table 3): > 200 mg/kg
COCCOCn1cnc2c1c(=O)n(CCCCC(C)(C)O)c(=O)n2C [Example 44] |  | 1199 |  | 
CCOCCOCCn1cnc2c1c(=O)n(CCCCC(C)(C)O)c(=O)n2CC [Example 48] |  |  | 14.6% | LD50 at 168 h (in vivo; iv, Table 3): > 200 mg/kg
Cn1c(=O)n(CCCCC(C)(C)O)c(=O)c2c1ncn2CCCO [Example 50] | 733 | 2631 |  | 
CC(=O)CCCCn1c(=O)c2c(ncn2C)n(C)c1=O [Pentoxifylline, 3,7-dimethyl-1-(5-oxohexyl)-xanthine, reference compound] |  |  | 8.6% | dilating effect on the norfenefrine-contracted vessels ([4]; concentration range from 10 to 100 μg/ml): dose-dependent dilating effect; influence on muscular metabolism in the ischemic skeletal muscle ([5]; chronic experiment, iliac artery occlusion): no direct influence; "liver first-pass" effect [1]: pronounced; biotransformation [1]: rapid and complete; action in these experiments (ischemic muscle contractility) (ischemic skeletal muscle [6]): no action
